PMC8253137, “Microbiota-derived butyrate is an endogenous HIF prolyl hydroxylase inhibitor” (Gut Microbes, 2021)

Tested on: T84 cells
Assay: HIF stabilization in T84 cells (HIF-1α target mRNA, HIF-1α western blot)
Type: cell-based
Conditions: 4 h
Protocol: T84 cells were cultured in 95% air with 5% CO2 at 37°C in standard media made of DMEM:F-12 supplemented with 10% calf serum, 1% penicillin/streptomycin, and 1% GlutaMAX™ (ThermoFisher Scientific) on 9.6 cm^2 6-well plates (ThermoFisher Scientific). Real-time oxygen sensing was done using the SensorDish Reader from Applikon Biotechnology as described previously with T84 cells plated on 0.33 cm^2 transwell inserts (Corning, 0.4 μm).[12] All MCPA treatments included a 2 h pretreatment with MCPA before treatment with butyrate.
TRIzol® reagent (ThermoFisher Scientific) was used to isolate total RNA from T84 cells. Mouse colon tissue samples were harvested into RNAlater™ (Invitrogen) and stored at 4°C for 48 h. Total RNA was isolated from the tissues using RNeasy Plus Mini Kit (Qiagen). cDNA was prepared using the iScript cDNA Synthesis Kit (Bio-Rad). Quantitative PCR analysis was performed using the Power SYBR™ Green master mix (Applied Biosystems) in a thermocycler. Fold change in expression of target mRNA relative to β-actin (ACTB) mRNA was calculated using the delta-delta Ct method. Primer sequences used are as follows: hBNIP3 – forward, 5′- […] −3′, reverse, 5′- […] −3′; hBNIP3L – forward, 5′- […] −3′, reverse, 5′- […] −3′; hGLUT1 – forward, 5′- […] −3′, reverse, 5′- […] −3′; hACTB – forward, 5′- […]-3′, reverse, 5′- […]-3′; mBnip3 – forward, 5′- […] −3′, reverse, 5′- […] −3′; mBnip3l – forward, 5′- […] −3′, reverse, 5′- […] −3′; mGlut1 – forward, 5′- […] −3′, reverse, 5′- […] −3′; and mActb – forward, 5′- […] −3′, reverse, 5′- […] −3′.
T84 cells were rinsed with PBS and collected and lysed in 200 µL of radioimmunoprecipitation assay (RIPA, 50 mM Tris-HCl pH 8.0, 1 mM EDTA, 1% Triton X-100, […], 0.5% sodium deoxycholate, 150 mM NaCl) buffer with protease inhibitors on ice. Mouse colon samples were harvested into 350 µL of RIPA buffer and flash frozen in liquid nitrogen. Samples were homogenized by sonication, and insoluble materials removed by centrifugation at 10,000 g for 5 min at 4°C. Protein quantity of the supernatant was determined using the Bradford reagent. […]

CCCC(=O)O [Butyrate]
HIF stabilization in the presence of MCPA (10 mM butyrate with 1 mM MCPA): still stabilized HIF | HIF-1α protein levels (10 mM butyrate): increased | HIF-1α target gene mRNA (BNIP3, BNIP3L, GLUT1) (10 mM butyrate): induction
